Results on 3 compounds are retold here after patent US20150157575A1, “Pharmaceutical Formulations Comprising Vilazodone” (Forest Laboratories Holdings Ltd., priority 2013, published 2015).

One series is described as follows: clinical. On the set-up: species or system human. The conditions noted are these: in vivo. As for the experimental part:
An open-label, multiple-dose, single-sequence study to evaluate the effect of steady-state carbamazepine XR, 400 mg once daily, a CYP3A4 substrate and inducer, on the pharmacokinetics of steady-state vilazodone 40 mg tablets once daily, with hardness of more than 10 kp and less than 14 kp, preferably about 12 kp as shown in Table 3 (No Tablet Breakage). Vilazodone was co-administered with carbamazepine XR (extended release formulation). Carbamazepine is an antiepileptic drug approved for the treatment of psychomotor and grand mal seizures is metabolized by CYP3A4, and is a CYP3A4 inducer.
All subjects were healthy, nonsmoking male or female volunteers who were 18-45 (Study 2) years of age. Inclusion and exclusion criteria were typical of the criteria used in pharmacokinetic studies in healthy volunteers as known in the art. Inclusion criteria used included agreement to use an effective measure of contraception, body mass index (BMI)>18 and ≦30 kg/m^2 (BMI=18 allowed), normal or clinically non-significant results on physical examination, medical history, serum chemistry, hematology, and urinalysis; negative hepatitis B antigen and C antibody tests, and negative HIV test at screening. Exclusion criteria included clinically significant electrocardiogram results or QT prolongation, clinically significant disease state, history of alcohol abuse, ingestion of food, drink, or drug that may interfere with CYP enzyme activity (e.g., cruciferous vegetables, caffeine, alcohol), known sensitivity to study drug or other drugs from the same class, and use of prohibited concomitant prescription or over-the counter medications.
All volunteers received 4 treatments (A, B, C, and D) in the same, fixed sequence: Treatment A consisted of vilazodone alone on Days 1-9 and was followed by a 14-day washout, Treatment B was carbamazepine XR alone for 19 days (Days 24-42), Treatment C was vilazodone plus carbamazepine XR for 9 days (Days 43-51), and Treatment D was carbamazepine alone for 3 days (Days 52-54). Once-daily doses of study drug were administered in the morning after breakfast; twice-daily doses were administered in the morning after breakfast and 12 hours later in the evening after dinner Study drug was administered within 30 minutes after the end of the corresponding meal.
Blood samples to determine plasma concentrations of vilazodone, M17 (the metabolite of vilazodone), carbamazepine, and carbamazepine-10,11-epoxide (one of the pharmacologically active metabolites of carbamazepine) were collected into tubes pretreated with K2EDTA. For vilazodone and M17 analyses, blood samples (approximately 6 mL) were collected at pre-dose on Days 1, 7, 8, 49, and 50. […] For the analyses of carbamazepine and carbamazepine-10,11-epoxide, blood samples were collected at pre-dose on Days 24, 40, 41, 49 and 50.
Blood samples were centrifuged at no less than 2500 g for 10 minutes at 4° C. within 30 minutes of the sample draw. Plasma was harvested and transferred to polypropylene tubes and flash frozen in a dry ice bath with isopropyl alcohol or methanol. Samples for vilazodone analyses were stored at approximately −70° C. and analyzed. Samples for carbamazepine analyses were stored at −20° C. and analyzed.
Plasma samples were analyzed for vilazodone, M17, carbamazepine and/or carbamazepine-10,11-epoxide concentrations using liquid chromatography coupled with tandem mass spectrometry (LC/MS/MS). For vilazodone and M17, analytes of interest were detected by electrospray ionization mass spectrometry in the negative ion multiple reaction monitoring mode. The assay was linear in the concentration range of 0.5 to 250 ng/mL for vilazodone and 0.25 to 125 ng/mL for M17.
Based on 50 ìL of human plasma with K2EDTA as the anticoagulant, the lower limit of quantification (LLOQ) was 0.5 ng/mL for vilazodone and 0.25 ng/mL for M17. […]

A short description of series [1]: Study 2: single-dose pharmacokinetics in severe hepatic impairment and matched healthy controls. The note with it: for AUC(0-inf) / Cmax / Tmax / half-life: both, human, plasma, po, 20 mg, vilazodone 20 mg single oral dose; for AUC(0-inf): AUC0-∞. As for the experimental part:
The pharmacokinetics, tolerability, and safety of vilazodone were investigated in two separate trials involving participants with hepatic impairment, compared with healthy controls. An Open-label, parallel-group, single-dose pharmacokinetic studies, a single, oral dose of vilazodone (20 mg with increased hardness) was administered to participants with mild, moderate, or severe hepatic impairment or individually matched controls. Outcomes included pharmacokinetic parameters and safety (vital signs, clinical laboratory evaluations, ECG, and adverse events [AEs]). Plasma samples were analyzed using validated LC/MS/MS methods.
Data from two, open-label, parallel-group, single-dose pharmacokinetic studies investigated single-dose vilazodone (20 mg with increased hardness) in participants with hepatic impairment and normal hepatic function. The first study (Study 1) included participants with mild or moderate hepatic impairment and healthy controls. The second study (Study 2) included participants with severe hepatic impairment or healthy participants. These studies were both designed in accordance with the FDA guidance for evaluation of pharmacokinetics in the presence of hepatic impairment. The differences between the study protocols were minimal, so both methodologies are described together, with any differences noted below.
Participants were men and women, 18 to 70 years of age, with a body mass index (BMI) of 18-42 kg/m^2. Women were not pregnant or breastfeeding and agreed to utilize a medically accepted form of contraception during the study (as did men in Study 2). In Study 2, participants were also required to be non-smokers or light smokers (fewer than 10 cigarettes per day; there was no stipulation in Study 1) and to have a sitting pulse rate of 50-100 bpm at screening and prior to dosing on Day 1. […] Each healthy control was matched with a hepatically impaired participant. Control participants in the Study 1 were matched with a hepatically impaired individual according to age (±10 years), sex, and BMI (±15%). Control participants in Study 2 were matched with a hepatically impaired individual according to age (±5 years), sex, and weight (±10%).
Participants with hepatic dysfunction were classified according to the Child-Pugh hepatic dysfunction staging system as having mild (5-6 points) or moderate (7-9 points) hepatic impairment (Study 1), or severe impairment (10-15 points; Study 2). Participants with severe impairment also had chronic liver disease and/or compensated cirrhosis, as evidenced by liver biopsy, computerized tomography or ultrasonic evidence of hepatic fibrosis, clinical evidence of chronic liver disease, or a colloid shift on a liver-spleen scan. Exclusion criteria included the following: a clinical diagnosis or history of depression; treatment with antidepressants, anxiolytics, psychoactive medications (including herbal supplements), other serotonergic drugs, or drugs that inhibit CYP3A4 (eg, ketoconazole, diltiazem, macrolide antibiotics); a hypersensitivity to vilazodone or other SSRIs or 5-HT agonists; history or evidence of alcohol or substance abuse, cancer, human immunodeficiency virus, hepatitis B (Study 1 and healthy controls, both studies) hepatitis C (healthy controls, both studies), or other clinically significant illnesses or medical conditions. Participants with severe hepatic impairment were excluded if they had bleeding diathesis, advanced ascites requiring large-volume paracentesis within 1 week of dosing, esophageal bleeding within the previous 8 weeks, history of portosystemic shunt or hepatic transplant, or evidence of hepatic encephalopathy, hepatorenal syndrome, or other evidence of rapid hepatic deterioration.
Participants were not allowed to have previously taken vilazodone or participated in any clinical investigation requiring repeated blood draws within 60 days of dosing, or donated blood or plasma within 60 or 30 days, respectively.

The mark [2] stands for this setting: Control matched to Severe Impairment n = 8.
[3] abbreviates: Severe Impairment n = 4 (who did not vomit).

Structures are written as SMILES.

As a reminder, the Tmax is the time from dosing to the highest level. On to `NC(=O)N1c2ccccc2C=Cc2ccccc21` [Carbamazepine, carbamazepine], for which the concentration at 42 day in the series “clinical” (both sexes, human, Cavg, ss, Mean (SD)) stood at 5500 ng/mL. Moreover, the Tmax in the series “clinical” (both sexes, human, tmax, Median (min-max)) came out at 10 h.
The AUC(0-inf) is total exposure, with the tail of the curve extrapolated. A higher AUC(0-inf) goes with more exposure. For orientation: Cmax means the maximum level reached in the sampled fluid or tissue. By half-life is commonly meant the time needed for the level to fall by half in the phase considered. A higher half-life goes with slow loss. Take `N#Cc1ccc2[nH]cc(CCCC(=O)O)c2c1` [M17]: the total exposure AUC(0-inf) in series [1] (setting [2]) was found to be 51.4 ± 21.4 ng·h/mL; in series [1] (setting [3]), 29.9 ± 8.15 ng·h/mL. Besides, the highest concentration (Cmax) came to 1.95 ± 0.56 ng/mL in series [1] (setting [2]) and 1.64 ± 0.56 ng/mL in series [1] (setting [3]). Further, the Tmax in series [1] (Tmax (mean), Control matched to Severe Impairment n = 8) came out at 6 ± 4.14 h; in series [1] (Tmax (mean), Severe Impairment n = 4 (who did not vomit)) it was 4.25 ± 1.26 h; in series [1] (Tmax, Median, Control matched to Severe Impairment n = 8) it was 5 h; in series [1] (Tmax, Median, Severe Impairment n = 4 (who did not vomit)), 4 h. In addition, the half-life in series [1] (t1/2, Control matched to Severe Impairment n = 8) is 17.4 ± 4.25 h; in series [1] (t1/2, Severe Impairment n = 4 (who did not vomit)), 17.8 ± 9.57 h. Further, the “ratio of M17 to vilazodone (AUC0-∞)” value in series [1] (normal controls) came to 0.07; in series [1] (severe hepatic impairment), 0.05. The “mean AUC0-∞ lower than in normal controls” value in series [1] (severe impairment (who did not vomit) vs normal controls, vilazodone 20 mg single dose) was “approximately 42%”.
As to `NC(=O)N1c2ccccc2C2OC2c2ccccc21` (centres unmarked) [carbamazepine-10,11-epoxide], the “tmax, Median (min-max)” value in the series “clinical” (human) was determined as 12.0 h. For the same compound, in “clinical”, the “Cavg, ss, Mean (SD)” value is 0.6 (0.2) μg/mL.
